Values quoted from earlier work in US20260272826A1 (THEAPRIN PHARMACEUTICALS, INC., priority 2017, published 2026).

Assays:
[1] = tribasic
rats = conditions: rat, in vivo
[2] = system: thrombin stimulated thromboxane formulation in whole blood; conditions: theanine by itself

SMILES	pKa 1 ([1]; first of pKa 1-3)	pKa 2 ([1]; second of pKa 1-3)	pKa 3 ([1]; third of pKa 1-3)	LD50 toxicity (rats) [mg/kg]	inhibition of thrombin stimulated thromboxane formulation [2]	solubility in water
O=C(O)CC(O)(CC(=O)O)C(=O)O [Citric Acid, 2-hydroxypropane-1,2,3-tricarboxylic acid]	5.21	4.28	2.92	–	–	–
CCNC(=O)CC[C@H](N)C(=O)O [L-theanine, N-ethyl-L-glutamine]	–	–	–	> 5000	potent inhibitor	soluble in water
